The text below walks through data of patent US7456170B2, “Triazolobenzodiazepines and their use as vasopressin antagonists” (Pfizer Inc., priority 2004, dated 2008).

Like-named read-outs stand apart in the source and are kept apart here.

The target of this assay is human V1A receptor (Homo sapiens, UniProt P37288). Nature of the assay: V1A filter binding assay ([3H]-AVP binding to CHO-hV1A membranes). The procedure: 1.0 V1A Filter Binding Assay
Receptor binding assays were performed on cellular membranes prepared from CHO cells stably expressing the human V1A receptor, (CHO-hV1A). The CHO-hV1A cell line was kindly provided under a licensing agreement by Marc Thibonnier, Dept. of Medicine, Case Western Reserve University School of Medicine, Cleveland, Ohio, CHO-hV1A cells were routinely maintained at 37° C. in humidified atmosphere with 5% CO2 in DMEM/Hams F12 nutrient mix supplemented with 10% fetal bovine serum, 2 mM L-glutamine, 15 mM HEPES and 400 μg/ml G418. For bulk production of cell pellets, adherent CHO-hV1A cells were grown to confluency of 90-100% in 850 cm^2 roller bottles containing a medium of DMEM/Hams F12 Nutrient Mix supplemented with 10% fetal bovine serum, 2 mM L-gitidtamine and 15 mM HEPES. Confluent CHO-hV1A cells were washed with phosphate-buffered saline (PBS), harvested into ice cold PBS and centrifuged at 1,000 rpm. Cell pellets were stored at −80° C. until use. […] Protein concentration was determined using Bradford reagent and BSA as a standard.
Protein linearity followed by saturation binding studies were performed on each new batch of membrane. […] Saturation binding studies were then performed using various concentrations of [^3H]-arginine vasopressin, [^3]-AVP (0.05 nM-100 nM) and the Kd and Bmax determined.
Compounds were tested for their effects on [^3H]-AVP binding to CHO-hV1A membranes, (^3H-AVP; specific activity 65.5 Ci/mmol: NEN Life Sciences). […] The plates were sealed and counted on a TopCount Microplate Scintillation Counter (Packard Instruments). Non-specific binding (NSB) was determined using 1 μM unlabelled d(CH2)5Tyr(Me)AVP ([β-mercapto-β,β-cyclopentamethylenepropionyl,0-Me-Tyr^2,Arg^8]-vasopressin) (βMCPVP), (Sigma). The radioligand binding data was analysed using a four parameter logistic equation with the min forced to 0%. […] Specific binding was calculated by subtracting the mean NSB cpm from the mean Total cpm. For test compounds the amount of ligand bound to the receptor was expressed as % bound=(sample cpm−mean NSB cpm)/specific binding cpm×100. […]

Where [1] appears, read: [3H]-AVP binding to CHO-hV1A membranes, screen 1.0, read-out: Ki.

Sequence of human V1A receptor (P37288 whole entry): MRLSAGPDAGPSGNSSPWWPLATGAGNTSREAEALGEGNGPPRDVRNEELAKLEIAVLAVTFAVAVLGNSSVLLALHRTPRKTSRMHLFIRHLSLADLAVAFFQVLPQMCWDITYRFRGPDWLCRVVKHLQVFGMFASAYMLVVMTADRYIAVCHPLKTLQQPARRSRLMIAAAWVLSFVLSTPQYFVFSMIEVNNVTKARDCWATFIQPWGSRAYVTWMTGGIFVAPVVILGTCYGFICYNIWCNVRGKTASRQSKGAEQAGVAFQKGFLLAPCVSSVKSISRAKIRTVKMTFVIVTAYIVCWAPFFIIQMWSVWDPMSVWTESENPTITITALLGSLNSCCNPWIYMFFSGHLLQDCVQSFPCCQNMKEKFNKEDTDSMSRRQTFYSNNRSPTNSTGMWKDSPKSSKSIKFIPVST

The Ki is the dissociation constant of the complex between target and ligand, obtained from inhibition or displacement. For the compound `CS(=O)(=O)N1Cc2cc(Cl)ccc2-n2c(nnc2N2CCC(c3ccccn3)CC2)C1` [Example 3, 8-Chloro-5-(methylsulfonyl)-1-(4-pyridin-2-ylpiperidin-1-yl)-5,6-dihydro-4H-[1,2,4]triazolo[4,3-a][1,4]benzodiazepine], the Ki was 0.62 nM.
As to `CS(=O)(=O)N1Cc2cc(Cl)ccc2-n2c(nnc2N2CCC(c3ccccc3)CC2)C1` [Example 6, 8-Chloro-5-(methylsulfonyl)-1-(4-phenylpiperidin-1-yl)-5,6-dihydro-4H-[1,2,4]triazolo[4,3-a][1,4]benzodiazepine], under setting [1], the Ki came to 0.17 nM.
Same read-out and setting: the value for `CN(C)S(=O)(=O)N1Cc2cc(Cl)ccc2-n2c(nnc2N2CCC(c3ccccc3)CC2)C1` [Example 8, 8-Chloro-N,N-dimethyl-1-(4-phenylpiperidin-1-yl)-4H-[1,2,4]triazolo[4,3-a][1,4]benzodiazepine-5(6H)-sulphonamide] was 0.36 nM.
